The target of data set [1] is T1, KAT7 (Homo sapiens, UniProt O95251).
T1 construct: purchased ICE S02210F-H21HF
Briefly: Enzymatic activity assay for KAT7 acetyltransferase (TR-FRET, histone substrate H4). It is filed as biochemical. Particulars: KAT7 15 nM, H4 300 nM, AcCOA 2 µM. Here is the method: The acetylation effects of KAT6B on histone substrate H3, as well as KAT5, KAT7, and KAT8 on histone substrate H4, were determined using the TR-FRET (time-resolved fluorescence resonance energy transfer) method. The determination was performed according to experimental procedures similar to those in "Pharmacological Experiment I": 1.2 Preparation of compounds: The compounds prepared in the examples were each dissolved in dimethylsulfoxide to give solutions at a concentration of 10 mmol/L. • 1) The compounds in the examples were each diluted from 10 mmol/L stock solution to 0.2 mmol/L, i.e., 1 µL of the compound was added to 49 µL of DMSO, and 3-fold dilution was performed to give 10 concentrations. • 2) 50 nL of the test compounds were transferred to 384 reaction plates using Echo, two replicates for each compound, and the plates were centrifuged at a rotation speed of 1000 rpm for 1 min, the final concentration of dimethylsulfoxide (DMSO) being 0.5%.
For KAT7: • 3) 2.5 µL of the KAT7 enzyme solution at a final concentration of 15 nM was added to the 384 reaction plates in step 2), and the plates were centrifuged at 1000 rpm for 1 min and incubated at 25 °C for 10 min. • 4) 2.5 µL of H4 at a final concentration of 300 nM and an AcCOA (acetyl-CoA) reaction solution at a final concentration of 2 µM were added to the 384 reaction plates in step 3), and the plates were centrifuged at a rotation speed of 1000 rpm for 1 min and incubated at 25 °C for 90 min.
For KAT8: • 3) 2.5 µL of the KAT8 enzyme solution at a final concentration of 10 nM was added to the 384 reaction plates in step 2), and the plates were centrifuged at 1000 rpm for 1 min and incubated at 25 °C for 10 min. • 4) 2.5 µL of […] at a final concentration of 300 nM and an AcCOA (acetyl-CoA) reaction solution at a final concentration of 2 µM were added to the 384 reaction plates in step 3), and the plates were centrifuged at a rotation speed of 1000 rpm for 1 min and incubated at 25 °C for 90 min. • 5) 5 µL of Eu-Ab& Ulight-SA detection solution was separately added to the 384 reaction plates in step 4) of the 4 groups described above, and the plates were centrifuged at 1000 rpm for 1 min and incubated at 25 °C for 60 min. • 6) The HTRF […] signals were read using a BMG high-throughput drug-screening multi-mode microplate reader.
The acetylation levels of the histones in the groups were analyzed by the GraphPad Prism 8 software. The reading of the negative control (0.5% DMSO wells) was set as 0% inhibition rate, and the reading of the positive control (wells with the highest concentration of the control compound) was set as 100% inhibition rate. The inhibition rates were calculated, and then IC50 values (half maximal inhibitory concentration) of test compounds were obtained by using a software nonlinear fitting formula; [formula]
Datapositive control: mean of positive control well values; Datanegative control: mean of negative control well values. Table 5. Enzymatic inhibitory activity of example compounds
On the technique in general: TR-FRET usually uses a lanthanide donor and a delayed reading to cut background.

Data set [2] in a line: Assay for plasma protein binding rate (equilibrium dialysis), human plasma. It is filed as in vitro ADME. Particulars: dialysis 6 h at 37 °C, read-out: Human (Fu%). Here is the method:
(§1) 1.1 Preparation of compounds: The compounds prepared in the examples were each dissolved in dimethylsulfoxide to give solutions at a concentration of 10 mmol/L. • 1) The example compounds were each diluted from 10 mmol/L stock solution to 0.2 mmol/L, i.e., 1 µL of the compound was added to 49 µL of DMSO; • 2) 3 µL of 0.2 mmol/L test compounds were added to 597 µL of blood plasma, and the mixtures were vortexed at 1000 rpm for 2 min; • 3) 50 µL of the plasma containing the drug in 2) was taken, 50 µL of PBS was added, and 300 µL of methanol internal standard* was added to serve as a sample T0; • 4) 120 µL of the plasma containing the drug in 2) was taken and added to one side of an HTD device membrane, and 120 µL of PBS was added to the other side of the membrane; a breathable film was covered, and the plasma and the residual sample in 2) were balanced at 37 °C (100 rpm and 5% CO2) for 6 h; • 5) 50 µL of the dialyzed plasma side sample was taken, 50 µL of PBS was added, and 300 µL of methanol internal standard* was added to serve as a sample P; • 6) 50 µL of the dialyzed PBS side sample was taken, 50 µL of blank plasma was added, and 300 µL of methanol internal standard* was added to serve as a sample B; • 7) 50 µL of the plasma containing the drug in 2) was taken, 50 µL of PBS was added, and 300 µL of methanol internal standard* was added to serve as a sample T6; • 8) All samples were vortexed, mixed homogeneously, and then centrifuged at 3220 g for 40 min at 4 °C; • 9) 100 µL of the supernatant and 100 µL of purified water were mixed homogenously for liquid chromatography-mass spectrometry.
(§2) An internal standard method was used, and the plasma protein binding rate, recovery rate, and residual percentage were calculated by using Excel according to the ratio of the peak area of the sample to the peak area of the internal standard. Free rate(%) = (RatioB)/(RatioP) × 100% [formula] Binding rate(%) = 100%−Free rate% [formula] Recovery rate(%) = (RatioB + RatioP)/(RatioT0) × 100% [formula] Remaining percentage(%) = (RatioT6)/(RatioT0) × 100% [formula]
(§3) RatioB: a ratio of the peak area of the test substance on the PBS side to the peak area of the internal standard; RatioP: a ratio of the peak area of the test substance on the plasma side to the peak area of the internal standard; RatioT6: a ratio of the peak area of the sample after incubation with the test substance for 6 h to the peak area of the internal standard; RatioT0: a ratio of the peak area of the sample after incubation with the test substance for 0 h to the peak area of the internal standard. Table 8. Plasma protein binding rate (Fu%) data for various species of example compounds
(In equilibrium dialysis only unbound substance equilibrates across the membrane.)

Data set [3] can be described thus: Assay for plasma protein binding rate (equilibrium dialysis), rat plasma. Type of data set: in vitro ADME. To be noted: dialysis 6 h at 37 °C, read-out: Rat (Fu%). Here is the method: as §1, §2, §3

Each structure is given as a SMILES string.

T1 sequence (O95251 whole entry): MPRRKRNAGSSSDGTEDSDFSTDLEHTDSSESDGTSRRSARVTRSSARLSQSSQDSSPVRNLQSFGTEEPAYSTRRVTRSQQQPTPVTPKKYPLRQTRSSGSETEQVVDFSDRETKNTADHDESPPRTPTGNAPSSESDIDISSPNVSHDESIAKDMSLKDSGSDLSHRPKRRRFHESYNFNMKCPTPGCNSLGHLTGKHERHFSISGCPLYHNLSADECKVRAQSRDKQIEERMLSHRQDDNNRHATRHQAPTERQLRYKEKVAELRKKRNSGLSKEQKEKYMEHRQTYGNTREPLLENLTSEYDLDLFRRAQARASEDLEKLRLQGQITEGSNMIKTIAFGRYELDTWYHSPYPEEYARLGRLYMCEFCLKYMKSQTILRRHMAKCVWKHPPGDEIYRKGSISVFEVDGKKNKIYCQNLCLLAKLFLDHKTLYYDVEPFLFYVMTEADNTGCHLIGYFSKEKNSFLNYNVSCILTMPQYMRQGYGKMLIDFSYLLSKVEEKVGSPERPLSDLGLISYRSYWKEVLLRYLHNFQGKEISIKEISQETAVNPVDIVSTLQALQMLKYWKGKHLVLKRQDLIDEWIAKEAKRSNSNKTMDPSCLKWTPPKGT

The IC50 is the midpoint of a concentration-inhibition curve. Low values mean higher potency, high ones lower potency. Turning to `COc1cc2c(cc1S(=O)(=O)Nc1noc3cc(Cn4cccn4)nc(OC)c13)OCC2` [Example 59, N-(6-((1H-Pyrazol-1-yl)methyl)-4-methoxyisoxazolo[4,5-c]pyridin-3-yl)-5-methoxy-2,3-dihydrobenzofuran-6-sulfonamide], 27.4 nM corresponded to half-maximal inhibition in data set [1] (IC50). The fraction unbound at 6 h, 1 µM in data set [2] came out at 0.0248; in data set [3], 0.0414.
For `COc1ccc2c(c1S(=O)(=O)Nc1noc3cc(Cn4cccn4)nc(OC)c13)OCC2` [Example 9, N-(6-((1H-Pyrazol-1-yl)methyl)-4-methoxyisoxazolo[4,5-c]pyridin-3-yl)-6-methoxy-2,3-dihydrobenzofuran-7-sulfonamide], inhibition in data set [1] was half-maximal at 47.5 nM (IC50). Also, the results for the fraction unbound at 6 h, 1 µM in data set [2] and in data set [3] were 0.0069 and 0.0257, respectively.
The corresponding values for `COc1cc2c(cc1S(=O)(=O)Nc1noc3cc(Cn4cccn4)nc(OC)c13)CCCO2` [Example 76, N-(6-((1H-Pyrazol-1-yl)methyl)-4-methoxyisoxazolo[4,5-c]pyridin-3-yl)-7-methoxy-3,4-dihydro-1H-benzopyran-6-sulfonamide] are 86.6 nM, 0.0118 and 0.0144.
The like results for `COc1ccc2ccoc2c1S(=O)(=O)Nc1noc2cc(Cn3cccn3)nc(OC)c12` [Example 10, N-(6-((1H-Pyrazol-1-yl)methyl)-4-methoxyisoxazolo[4,5-c]pyridin-3-yl)-6-methoxybenzofuran-7-sulfonamide] were, in that order, 7.42 nM, 0.0073 and 0.0132.
The corresponding values for `COc1cc2c(cc1S(=O)(=O)Nc1noc3cc(Cn4cccn4)nc(OC)c13)CCCC2` [Example 2, N-(6-((1H-Pyrazol-1-yl)methyl)-4-methoxyisoxazolo[4,5-c]pyridin-3-yl)-3-methoxy-5,6,7,8-tetrahydronaphthalene-2-sulfonamide] are 54 nM, 0.0099 and 0.0167.

The values are drawn from patent EP4692094A1 (Beijing Konruns Pharmaceutical Co., Ltd., priority 2023, dated 2024).
